Results taken from ChEMBL document CHEMBL1158669, “Cytotoxic scalarane sesterterpenes from a sponge, Hyrtios erecta” (J Nat Prod, 1998).
Converted amounts (≈) assume the structure as drawn.

Legend:
P388 [1] = test: Antitumor activity against mouse P388 cells after 48 hrs by MTT assay; format: functional, cell-based; settings: P388, 48 h
P388 [2] = test: Antitumor activity against mouse P388 cells implanted in CDF1 mouse assessed as decrease in weight change at 0.5 mg/kg, ip; format: functional; set-up: scale not given: the % may be the effect or the level left; settings: route intraperitoneal
P388 [3] = test: Antitumor activity against mouse P388 cells implanted in CDF1 mouse assessed as decrease in weight change at 8.0 mg/kg, ip; format: functional; set-up: scale not given: the % may be the effect or the level left; settings: route intraperitoneal
MKN-7 = test: Antitumor activity against human MKN7 cells after 48 hrs by MTT assay; format: functional, cell-based; settings: MKN-7, 48 h
MKN-74 = test: Antitumor activity against human MKN74 cells after 48 hrs by MTT assay; format: functional, cell-based; settings: MKN-74, 48 h
P388 [4] = test: Antitumor activity against mouse P388 cells implanted in CDF1 mouse assessed as increase in life span at 2.0 mg/kg, ip; format: functional; settings: route intraperitoneal
P388 [5] = test: Antitumor activity against mouse P388 cells implanted in CDF1 mouse assessed as increase in life span at 1.0 mg/kg, ip; format: functional; settings: route intraperitoneal
P388 [6] = test: Antitumor activity against mouse P388 cells implanted in CDF1 mouse assessed as increase in life span at 8.0 mg/kg, ip; format: functional; settings: route intraperitoneal
P388 [7] = test: Antitumor activity against mouse P388 cells implanted in CDF1 mouse assessed as decrease in weight change at 2.0 mg/kg, ip; format: functional; set-up: scale not given: the % may be the effect or the level left; settings: route intraperitoneal
P388 [8] = test: Antitumor activity against mouse P388 cells implanted in CDF1 mouse assessed as decrease in weight change at 1.0 mg/kg, ip; format: functional; set-up: scale not given: the % may be the effect or the level left; settings: route intraperitoneal
P388 [9] = test: Antitumor activity against mouse P388 cells implanted in CDF1 mouse assessed as decrease in weight change at 4.0 mg/kg, ip; format: functional; set-up: scale not given: the % may be the effect or the level left; settings: route intraperitoneal
P388 [10] = test: Antitumor activity against mouse P388 cells implanted in CDF1 mouse assessed as increase in life span at 0.5 mg/kg, ip; format: functional; settings: route intraperitoneal
[11] = Antitumor activity against human MKN1 cells after 48 hrs by MTT assay; format: functional, cell-based; settings: MKN-1, 48 h
P388 [12] = test: Antitumor activity against mouse P388 cells implanted in CDF1 mouse assessed as increase in life span at 4.0 mg/kg, ip; format: functional; settings: route intraperitoneal

SMILES: CC(=O)O[C@@H]1C[C@@H]2[C@@]3(C)CCCC(C)(C)[C@@H]3CC[C@@]2(C)[C@@H]2CC=C3C(=O)O[C@@H](O)[C@@H]3[C@@]12C
- IC50 (P388 [1]): > 1 µg/mL

SMILES: CC1(C)CCC[C@]2(C)[C@H]3C[C@@H](O)[C@]4(C)[C@H]5OC(=O)C=C5[C@@H](O)C[C@H]4[C@]3(C)CC[C@@H]12
- IC50 (P388 [1]): > 1 µg/mL

SMILES: CC1(C)C(=O)CC[C@]2(C)[C@H]3C[C@@H](O)[C@]4(C)[C@@H]5C(=CC[C@H]4[C@]3(C)CC[C@@H]12)CO[C@H]5O
- Activity (P388 [2]): 3%
- Activity (P388 [3]): 0.4%
- IC50 (MKN-7): 0.056 µg/mL (≈ 0.139 µM)
- IC50 (MKN-74): 0.0368 µg/mL (≈ 0.0914 µM)
- Activity (P388 [4]): 31.4%
- Activity (P388 [5]): 32.6%
- Activity (P388 [6]): 74.4%
- Activity (P388 [7]): 2.4%
- Activity (P388 [8]): 2%
- Activity (P388 [9]): 0.9%
- Activity (P388 [10]): 24.4%
- IC50 (P388 [1]): 0.0145 µg/mL (≈ 0.036 µM)
- IC50 [11]: 0.0577 µg/mL (≈ 0.143 µM)
- Activity (P388 [12]): 51.2%

SMILES: CC1(C)[C@@H](O)CC[C@]2(C)[C@H]3C[C@@H](O)[C@]4(C)[C@@H]5C(=CC[C@H]4[C@]3(C)CC[C@@H]12)CO[C@H]5O
- IC50 (P388 [1]): 0.25 µg/mL (≈ 0.618 µM)

SMILES: CC(=O)O[C@@H]1C[C@@H]2[C@@]3(C)CC[C@H](O)C(C)(C)[C@@H]3CC[C@@]2(C)[C@@H]2CC=C3CO[C@@H](O)[C@@H]3[C@@]12C
- IC50 (P388 [1]): 0.505 µg/mL (≈ 1.13 µM)

SMILES: CC1(C)CCC[C@]2(C)[C@H]3C[C@@H](O)[C@]4(C)[C@@H]5C(=CC[C@H]4[C@]3(C)CC[C@@H]12)CO[C@H]5O
- IC50 (P388 [1]): > 1 µg/mL

SMILES: C[C@@H]1C[C@H]1[C@H](C)C[C@@H](O)[C@@]1([C@H]2CC[C@H]3[C@@H]4CC[C@H]5CC(=O)CC[C@]5(C)[C@H]4C[C@@H](O)[C@]23C)CO1 [ARAGUSTEROL A]
- IC50 (P388 [1]): 0.022 µg/mL (≈ 0.048 µM)

SMILES: C[C@H](CC[C@](C)(O)[C@H]1CC[C@H]2[C@@H]3CC[C@H]4CC(=O)CC[C@]4(C)[C@H]3C[C@@H](O)[C@@]21C)[C@H]1C[C@@H]1C [ARAGUSTEROL B]
- IC50 (P388 [1]): > 3.3 µg/mL

SMILES: C[C@H](C[C@@H](O)[C@](O)(CCl)[C@H]1CC[C@H]2[C@@H]3CC[C@H]4CC(=O)CC[C@]4(C)[C@H]3C[C@@H](O)[C@]12C)[C@H]1C[C@@H]1C [ARAGUSTEROL C]
- IC50 (P388 [1]): 0.041 µg/mL (≈ 0.0828 µM)
